Experimental data: ChEMBL document CHEMBL1123182, “Synthesis and biological properties of chitin synthetase inhibitors resistant to cellular peptidases” (J Med Chem, 1986)
≈ marks a conversion by molar mass, not a printed value.

Assays:
Chitin synthase 1 [1] = target: T1, Chitin synthase 1 (Candida albicans, UniProt P23316); experiment: Inhibition constant (KI) for the mmf chitin synthetase assay performed at constant inhibitor and varying substrate concentrations
Candida albicans [2] = experiment: Concentration at which 50% of the Candida albicans cells were not viable; format: functional
[3] = target: Chitin synthase 1 (Candida albicans) (UniProt P23316); experiment: Compound was tested for the inhibitory activity against chitin synthetase in the mixed membrane preparation from Candida albicans; format: cell membranes
[4] = target: Chitin synthase 1 (Candida albicans) (UniProt P23316); experiment: Compound was tested for the inhibitory activity against chitin synthetase in the permeabilised cell assay
Candida albicans [5] = experiment: Millimolar concentration at which some morphological effects in Candida albicans cells (about 5% of cells) was determined; format: functional; details: read-out: MEC
Candida albicans [6] = experiment: Millimolar concentration of the lowest concentration that clearly inhibited the cell growth of Candida albicans was determined; format: functional
Chitin synthase 1 [7] = target: T1, Chitin synthase 1; experiment: Compound was tested for the inhibitory activity against chitin synthetase
Candida albicans [8] = experiment: Compound was tested for the inhibitory activity against Candida albicans cell growth; format: functional

T1 sequence (P23316 whole entry): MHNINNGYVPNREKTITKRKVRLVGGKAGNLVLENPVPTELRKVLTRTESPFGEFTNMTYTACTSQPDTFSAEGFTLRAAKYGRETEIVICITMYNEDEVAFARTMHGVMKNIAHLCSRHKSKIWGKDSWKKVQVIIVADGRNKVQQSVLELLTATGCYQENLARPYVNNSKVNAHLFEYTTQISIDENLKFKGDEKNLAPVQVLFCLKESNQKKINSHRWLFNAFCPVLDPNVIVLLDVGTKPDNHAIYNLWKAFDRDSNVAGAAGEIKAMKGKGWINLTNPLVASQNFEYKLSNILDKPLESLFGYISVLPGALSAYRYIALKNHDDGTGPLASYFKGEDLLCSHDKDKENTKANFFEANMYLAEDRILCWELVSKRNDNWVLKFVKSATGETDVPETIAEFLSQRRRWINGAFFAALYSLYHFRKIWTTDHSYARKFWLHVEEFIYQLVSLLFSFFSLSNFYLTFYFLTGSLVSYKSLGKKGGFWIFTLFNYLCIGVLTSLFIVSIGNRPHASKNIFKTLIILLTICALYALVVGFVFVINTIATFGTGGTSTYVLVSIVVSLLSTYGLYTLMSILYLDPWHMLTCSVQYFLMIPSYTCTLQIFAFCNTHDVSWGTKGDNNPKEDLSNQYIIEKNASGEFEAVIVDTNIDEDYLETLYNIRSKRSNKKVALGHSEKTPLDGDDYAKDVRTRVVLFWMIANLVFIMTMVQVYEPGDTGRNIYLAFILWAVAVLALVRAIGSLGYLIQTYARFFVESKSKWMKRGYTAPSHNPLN
Chitin synthase 1 (Candida albicans), sequence (P23316 whole entry, looked up): as the sequence (P23316 whole entry) above

Compound	Ki (Chitin synthase 1 [1]) [µM]	concentration killing 50% of cells (Candida albicans [2]) [mM]	ID50 [3] [µM]	ID50 [4] [µM]	minimal effective concentration (Candida albicans [5]) [µM]	MIC (Candida albicans [6]) [µM]	Ki (Chitin synthase 1 [7]) [µM]	Viability (Candida albicans [8]) [mM]
CCCCC(N)C(=O)NC(C(N)=O)[C@H]1O[C@@H](n2ccc(=O)[nH]c2=O)[C@H](O)[C@@H]1O (some centres not stated)	246	>4	200	> 100	> 4000	> 1000	–	–
NC(Cc1ccccc1)C(=O)N/C(=C/c1ccccc1)C(=O)NC(C(=O)O)[C@H]1O[C@@H](n2ccc(=O)[nH]c2=O)[C@H](O)[C@@H]1O (some centres not stated)	–	–	40	80	> 2000	> 2000	11.3	>2
CCCCCCCC(=O)NC(Cc1ccccc1)C(=O)NC(C(=O)NC(C(=O)O)[C@H]1O[C@@H](n2cc(C(=O)O)c(=O)[nH]c2=O)[C@H](O)[C@@H]1O)C(O)C(O)COC(N)=O (some centres not stated)	–	–	47.5	50	1000	1000 (≈ 795 µg/mL)	7.15	>1
N[C@@H](Cc1c[nH]c2ccccc12)C(=O)NC(C(=O)O)[C@H]1O[C@@H](n2ccc(=O)[nH]c2=O)[C@H](O)[C@@H]1O (some centres not stated)	1060	>4	> 100	> 100	4000	> 1000	–	–
CCCNC(CC(C)C)C(=O)NC(C(=O)O)[C@H]1O[C@@H](n2ccc(=O)[nH]c2=O)[C@H](O)[C@@H]1O (some centres not stated)	–	–	> 100	> 100	> 2500	2500 (≈ 1110 µg/mL)	145	>1
CCCCC(NC)C(=O)NC(C(=O)O)[C@H]1O[C@@H](n2ccc(=O)[nH]c2=O)[C@H](O)[C@@H]1O (some centres not stated)	218	>4	120	97.5	20	> 1000	–	–
NC(=O)OCC(O)C(O)C(N)C(=O)NC(C(=O)O)[C@H]1O[C@@H](n2cc(C(=O)O)c(=O)[nH]c2=O)[C@H](O)[C@@H]1O (some centres not stated)	0.59	1	–	1	20	60 (≈ 31.3 µg/mL)	–	–
NOC(Cc1ccccc1)C(=O)NC(C(=O)O)[C@H]1O[C@@H](n2ccc(=O)[nH]c2=O)[C@H](O)[C@@H]1O (some centres not stated)	978	>3	100	> 100	> 3000	3000 (≈ 1350 µg/mL)	–	–
